The subject of experiment [1] is C. neoformans serotype A H99 strain and its deletion mutants. Put plainly: Antifungal drug sensitivity test: serially diluted cells spotted on YPD agar containing the drug. The class given is cell-based, Cryptococcus neoformans. Conditions: for drug sensitivity of hog1Δ mutant compared to WT / drug sensitivity of pbs2Δ mutant compared to WT / drug sensitivity of skn7Δ mutant compared to WT / drug sensitivity of ssk1Δ mutant compared to WT / drug sensitivity of ssk2Δ mutant compared to WT / drug sensitivity of tco2Δ mutant compared to WT: YPD agar, 30° C., 72 h. The procedure:
(§1) Each strain was incubated overnight at 30° C. in YPD medium, washed, serially diluted (1 to 10^4 dilutions) in dH2O, and spotted (3 μl) onto solid YPD medium containing indicated concentrations of stress-inducing agents or antifungal drugs as previously described in “Bahn Y S, Kojima K, Cox G M, Heitman J (2005) Mol Biol Cell 16: 2285-2300.” and “Bahn Y S, Kojima K, Cox G M, Heitman J (2006) Mol Biol Cell 17: 3122-3135”. To examine antifungal drug sensitivity, the cells were spotted on agar-solid YPD media containing amphotericin B (Sigma), fluconazole (Sigma), itraconazole (Sigma), ketoconazole (Sigma) and fludioxonil. Then spotted cells were incubated at 30° C. for 2-4 days and photographed.

Experiment [2] concerns C. neoformans serotype D strains JEC21 and B3501 and their deletion mutants. The description is as above. The class given is cell-based, Cryptococcus neoformans. The procedure:
as §1

The values below come from US9017956B2, “Use of the genes in the Hog, Ras and cAMP pathway for treatment of fungal infection” (Nutrex Technology Co., Ltd., priority 2009, dated 2015).

Entries after “also recorded” stand apart in the source; their conditions may differ.

Regarding `C[C@@H]1[C@H](O)[C@@H](C)/C=C/C=C/C=C/C=C/C=C/C=C/C=C/[C@H](O[C@@H]2O[C@H](C)[C@@H](O)[C@H](N)[C@@H]2O)C[C@@H]2O[C@](O)(C[C@@H](O)C[C@@H](O)[C@H](O)CC[C@@H](O)C[C@@H](O)CC(=O)O[C@H]1C)C[C@H](O)[C@H]2C(=O)O` [amphotericin B], in experiment [1] (aca1Δ, H99 background), the “drug sensitivity of aca1Δ mutant compared to WT” value is on record as “slightly higher AmpB susceptibility”. Further, in experiment [1] (H99 background), the “drug sensitivity of cac1Δ mutant compared to WT” value is reported as “hypersensitive”, the “drug sensitivity of gpa1Δ mutant compared to WT” value was “hypersensitive”, the “drug sensitivity of hog1Δ mutant compared to WT” value is listed as “dramatic hypersensitivity” and the “drug sensitivity of pbs2Δ mutant compared to WT” value is “dramatic hypersensitivity”. Besides, in experiment [1] (H99 background), the “drug sensitivity of pka1Δ mutant compared to WT” value is on record as “hypersensitive”, the “drug sensitivity of skn7Δ mutant compared to WT” value is reported as “WT-levels of resistance”, the “drug sensitivity of ssk1Δ mutant compared to WT” value is given as “dramatic hypersensitivity” and the “drug sensitivity of ssk2Δ mutant compared to WT” value is “dramatic hypersensitivity”. Besides, in experiment [1] (H99 background), the “drug sensitivity of tco2Δ mutant compared to WT” value is “hypersensitivity”. Further, in experiment [1] (H99 background, listed as AmpB), the “drug sensitivity of cac1Δ mutant compared to WT” value is “much higher AmpB-sensitivity”, the “drug sensitivity of gpa1Δ mutant compared to WT” value is on record as “much higher AmpB-sensitivity” and the “drug sensitivity of pka1Δ mutant compared to WT” value was “increased susceptibility”. Further, the “drug sensitivity of ena1Δ mutant” value in experiment [1] (ena1Δ) is listed as “did not show high sensitivity”. For the same compound, in experiment [1] (ena1Δ nha1Δ), the “drug sensitivity of ena1Δ nha1Δ double mutant” value was “considerably increased sensitivity”. In addition, in experiment [1] (compared to single mutants), the “drug sensitivity of hog1Δ cac1Δ double mutant” value is on record as “even more sensitive”. Also, the “drug sensitivity of hog1Δ pka1Δ double mutant” value in experiment [1] (hog1Δ pka1Δ, compared to single mutants) is “even more sensitive”. Further, the “drug sensitivity of hsp12Δ mutant compared to WT” value in experiment [1] (hsp12Δ, H99 background) was “slightly higher susceptibility”. Also, the “drug sensitivity of hsp122Δ mutant compared to WT” value in experiment [1] (hsp122Δ, H99 background) was “slightly higher susceptibility”. Besides, the “drug sensitivity of nha1Δ mutant” value in experiment [1] (nha1Δ) is “did not show high sensitivity”. Also, the “drug sensitivity of ras1Δ aca1Δ double mutant” value in experiment [1] (compared to each single mutant) is on record as “hypersensitive”. Moreover, the “drug sensitivity of ras1Δ aca1Δ double mutant” value in experiment [1] (compared to each single mutant, listed as AmpB) is given as “higher AmpB-sensitivity than each single mutant”. In experiment [1] (ras1Δ cac1Δ, compared to each single mutant), the “drug sensitivity of ras1Δ cac1Δ double mutant” value was “even higher AmpB susceptibility than each single mutant”. Also, the “drug sensitivity of ras1Δ mutant compared to WT” value in experiment [1] (ras1Δ, H99 background) is given as “higher susceptibility”. Besides, the “drug sensitivity of ras2Δ mutant compared to WT” value in experiment [1] (ras2Δ, H99 background) is listed as “slightly more sensitive”. In addition, in experiment [2] (B3501 (Hog1 constitutively phosphorylated)), the “drug resistance of B3501 strain compared to JEC21” value is “higher resistance”. For the same compound, the “drug sensitivity of JEC21 strain” value in experiment [2] (JEC21 (Hog1 not constitutively phosphorylated), compared with ssk2Δ mutant in H99 background) was “hypersensitivity”. For the same compound, the “effect of HOG1 mutation on drug sensitivity in JEC21 background” value in experiment [2] (hog1Δ in JEC21) is recorded as “did not affect sensitivity”. In addition, the “effect of PBS2 mutation on drug sensitivity in JEC21 background” value in experiment [2] (pbs2Δ in JEC21) was “did not affect sensitivity”. In addition, the “effect of SSK2 mutation on drug sensitivity in B3501 background” value in experiment [2] (ssk2Δ in B3501) is recorded as “increased the amphotericin B sensitivity”. The “effect of SSK2 mutation on drug sensitivity in JEC21 background” value in experiment [2] (ssk2Δ in JEC21) is on record as “did not affect sensitivity”.
On to `OC(Cn1cncn1)(Cn1cncn1)c1ccc(F)cc1F` [fluconazole], for which, in experiment [1] (H99 background), the “drug sensitivity of cac1Δ mutant compared to WT” value is given as “nearly as resistant”, the “drug sensitivity of gpa1Δ mutant compared to WT” value is given as “nearly as resistant”, the “drug sensitivity of hog1Δ mutant compared to WT” value is “hyper-resistance” and the “drug sensitivity of pbs2Δ mutant compared to WT” value is “hyper-resistance”. Moreover, in experiment [1] (H99 background), the “drug sensitivity of pka1Δ mutant compared to WT” value is “nearly as resistant”, the “drug sensitivity of skn7Δ mutant compared to WT” value was “higher resistance”, the “drug sensitivity of ssk1Δ mutant compared to WT” value is recorded as “hyper-resistance” and the “drug sensitivity of ssk2Δ mutant compared to WT” value is listed as “hyper-resistance”. Besides, in experiment [1] (H99 background), the “drug sensitivity of tco2Δ mutant compared to WT” value was “higher resistance”. Besides, in experiment [1] (compared to single mutants), the “drug sensitivity of hog1Δ cac1Δ double mutant” value is listed as “hypersensitivity; also recorded: hypersensitive”. The “drug sensitivity of pka1Δ pka2Δ double mutant compared to WT” value in experiment [1] (pka1Δ pka2Δ, H99 background) is recorded as “nearly as resistant”. Also, the “drug sensitivity of pka2Δ mutant compared to WT” value in experiment [1] (pka2Δ, H99 background) is given as “nearly as resistant”.
In the case of `CC(=O)N1CCN(c2ccc(OCC3COC(Cn4ccnc4)(c4ccc(Cl)cc4Cl)O3)cc2)CC1` (centres unmarked) [ketoconazole], in experiment [1] (compared to single mutants), the “drug sensitivity of hog1Δ cac1Δ double mutant” value is reported as “hypersensitivity; also recorded: hypersensitive”. In addition, in experiment [1] (H99 background), the “drug sensitivity of hog1Δ mutant compared to WT” value is given as “hyper-resistance”, the “drug sensitivity of pbs2Δ mutant compared to WT” value is listed as “hyper-resistance”, the “drug sensitivity of skn7Δ mutant compared to WT” value is recorded as “higher resistance” and the “drug sensitivity of ssk1Δ mutant compared to WT” value is recorded as “hyper-resistance”. For the same compound, in experiment [1] (H99 background), the “drug sensitivity of ssk2Δ mutant compared to WT” value is listed as “hyper-resistance” and the “drug sensitivity of tco2Δ mutant compared to WT” value is “higher resistance”.
